Experimental data taken from patent publication US11738067B2, “Elevated intracranial pressure treatment” (INVEX THERAPEUTICS LTD., priority 2014, dated 2023).
“Also recorded” adds a separate entry of the source. Each block holds one compound with its values, some of them ahead of it. The star is where a group is joined. Myristoyl = CCCCCCCCCCCCCC(=O)*

Key:
GLP-1R [1] = molecular target: T1, GLP-1R (Rattus norvegicus, UniProt P32301); assay: GLP-1R localisation by immunofluorescent staining in choroid plexus explants; format: cell-based; settings: 100 nM
T1 construct: The choroid plexus from the lateral ventricles were dissected and placed in artificial CSF; from tissue; host or cells: rat choroid plexus explants (lateral ventricles)
T1 sequence (P32301 22-463): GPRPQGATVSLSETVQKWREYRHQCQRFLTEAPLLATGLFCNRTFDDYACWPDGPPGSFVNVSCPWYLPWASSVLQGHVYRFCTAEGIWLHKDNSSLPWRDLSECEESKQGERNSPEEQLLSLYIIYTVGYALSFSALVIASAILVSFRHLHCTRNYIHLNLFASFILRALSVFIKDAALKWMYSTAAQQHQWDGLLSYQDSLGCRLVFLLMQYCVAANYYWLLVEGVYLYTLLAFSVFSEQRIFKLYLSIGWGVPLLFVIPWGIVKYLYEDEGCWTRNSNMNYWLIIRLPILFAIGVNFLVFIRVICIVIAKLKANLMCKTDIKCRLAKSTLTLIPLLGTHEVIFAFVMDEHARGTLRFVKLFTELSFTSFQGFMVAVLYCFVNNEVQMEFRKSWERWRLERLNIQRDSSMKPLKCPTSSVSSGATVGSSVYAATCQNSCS
Method: (§1) The choroid plexus from the lateral ventricles were dissected and placed in artificial CSF (aCSF; 118 mM NaCl, 22 mM NaHCO3, 1.45 mM K2HPO4, 1 mM MgSO4, 1 mM CaCl2 and 10 mM glucose). To evaluate the effects of Exendin-4 on GLP-1R localisation within the cell, the explants were incubated with aCSF containing 100 nM Exendin-9 for 15 minutes or 100 nM Exendin-4 for 15 and 30 minutes. The explants were then fixed and stained following the protocol described below. To determine the effects of Exendin-4 on GLP-1R mRNA expression and protein levels the explants were incubated with aCSF containing 100 nM Exendin-4 for 3 and 6 hours, immediately frozen in liquid nitrogen and stored at −80° C.
For fluorescence labelling of choroid plexus explants and CPe cells, cells were first fixed in PBS containing 2% PFA and 2% glucose for 20 minutes at room temperature, washed in PBS and then permeabilised with methanol for 6 minutes at room temperature. The cells were stained using the same technique described above except that PBST was substituted with PBS.
Stained cells and sections were viewed under a Zeiss LSM 510 UV-confocal microscope (Carl Zeiss) and multiple Z-stack images were taken.

[2] = Clinical observation of ICP in IIH patients treated with diuretics; format: in vivo
[3] = IIH patients, cited from earlier work; for visual field grades: no significant difference between groups
Na^+K^+ATPase [4] = assay: Na+K+ATPase activity assay in CPe cells; format: cell-based, rat
Method: (§2) Choroid plexus tissue from lateral and fourth ventricles were dissected and incubated with 0.25% trypsin solution for 2.5 hours at 4° C. followed by 30 minutes at 37° C. Trypsin digestion was stopped by the addition of newborn calf serum and the cell suspension was centrifuged at 20 g for 10 minutes. Cells were resuspended in DMEM/F12 supplemented with 10% FBS, 1% penicillin/streptomycin, 4 mM L-glutamine, 200 ng/ml hydrocortisone, 5 ng/ml sodium selenite and 10 ng/ml EGF. 20 μM cytosine arabinoside was used for the first 4 days in culture to limit the growth of fibroblasts (Gath et al., 1997). Initially the cells were seeded onto a laminin coated 6 well plate and allowed to grow for 2 days before being transferred to laminin coated 96 well plates or 12 well inserts (Greiner Bio-One Ltd). On day 4 the media was replaced with DMEM/F12 supplemented with 10% FBS and 1% penicillin/streptomycin and changed every 2-3 days. After reaching confluency, CPe cells were serum deprived for 3 days prior to the beginning of the studies (between days 10-14).
The effect of Exendin-4 on Na^+K^+ATPase activity in the choroid plexus was evaluated by the colorimetric measurement of phosphate released from ATP with the use of a phosphate assay kit (ab65622, Abcam); with Na^+K^+ATPase activity being defined as the portion of phosphate produced that is sensitive to Ouabain. CPe cells were incubated with aCSF for 1 hour at 37° C. before incubation in aCSF containing; 100 nM Exendin-4 (n=7), 5 μM PKI-16-22-amide (n=8), 100 nM Exendin-4+5 μM PKI-16-22-amide (n=8); in the presence and absence of 1 mM Ouabain for 30 minutes at 37° C. The cells were then lysed on ice and spun at 13,000 g to remove cell debris. Phosphate was measured as per the manufacturer's instructions. Briefly the samples were added to the reaction mix and incubated at room temperature for 60 minutes before the plate was read at 690 nm. Na^+K^+ATPase activity was calculated as the difference between the amount of phosphate produced in the presence and absence of Ouabain for each treatment.

GLP-1R [5] = molecular target: T1, GLP-1R; assay: GLP-1R mRNA (qPCR) and protein (western blot) in choroid plexus explants; format: cell-based; settings: 100 nM
Method: as §1
For qPCR studies, hypothalamus, anterior pituitary and choroid plexus were dissected, immediately frozen in liquid nitrogen and stored at −80° C. Primary cultures of CPe cells were grown on 12 well inserts until confluency. Total RNA was extracted using the GenElute mammalian total RNA extraction kit (Sigma-Aldrich) and carried out according to the manufacturer's instructions. RNA was reverse transcribed to complementary DNA (cDNA) using a high capacity reverse transcription kit according to the manufacturer's protocol (Life Technologies). Taqman Gene Expression Assays (Life Technologies) were used to assess the expression of GLP-1R (assay number Rn00562406_m1). The 18S ribosomal subunit was used as an endogenous reference (4319413E) and samples were run in triplicate. The cycle number at which the particular sample crossed that threshold (Ct) was used to determine the levels of gene expression and ΔCt was calculated as the difference between the Ct (gene of interest) and the Ct (endogenous reference).
The hypothalamus, pituitary and choroid plexus were dissected, immediately frozen in liquid nitrogen and stored at −80° C. Tissues were homogenised in ice cold lysis buffer (20 mM Tris-HCl pH 7.4, 150 mM NaCl, 1 mM EDTA, 0.5 mM EGTA, 1% NP-40 containing protease inhibitor) and centrifuged at 13,000 g to remove cell debris. CPe cells were grown on 12 well inserts until confluency. Cell and tissue lysates (3 μg protein) were separated on an 8% SDS-PAGE gel. […] After washing in TBST the membranes were incubated with HRP-conjugated secondary antibody diluted in milk/TBST for 1 hour at room temperature. The bands were detected using ECL reagents (Amersham) and developed onto film.

[6] = system: rat choroid plexus explants; assay: Intracellular Na+ levels (Sodium Green) in choroid plexus explants; format: cell-based; settings: artificial CSF+Exendin-4 for 3 hours vs no treatment
Method: Intracellular Na^+ levels were observed using Sodium Green (iNa^+) (life technologies). Briefly, rat choroid plexus explants were incubated with iNa^+ for 30 minutes before treatment with artificial CSF (no treatment) or artificial CSF+Exendin-4 for 3 hours. The fluorescence intensity directly correlates with the amount of intracellular Na^+.

GLP-1R [7] = molecular target: T1, GLP-1R; assay: cAMP levels in choroid plexus explants; format: cell-based; settings: 3 hours, vs aCSF
Method: Histogram of mean±SEM of cAMP levels in choroid plexus explants in the 3 groups. The normal levels of cAMP observed with aCSF were increased after the addition of Exendin-4 (GLP-1R agonist) for 3 hours. Forskolin, an adenylate cyclase activator, acted as a positive control for cAMP levels;

GLP-1R [8] = molecular target: T1, GLP-1R; assay: cAMP assay in primary CPe cells; format: cell-based
Method: as §2
The effect of Exendin-4 on the downstream GLP-1R signalling pathway was assessed by measuring the levels of cAMP in CPe cells using the Amersham cAMP Biotrak Enzyme immunoassay (EIA) System (RPN 225, GE Healthcare Life Sciences). […] The cells were subsequently lysed and cAMP detected according to the manufacturer's instructions.

[9] = ICP recordings in conscious rats (epidural pressure bolt); format: in vivo, rat; settings: for change in ICP from baseline: 30 and 60 minutes post treatment
Method: This procedure and its validation were recently published as a methodological work and contains all technical and surgical detail (Uldall et al, 2014). In brief, rats were anaesthetised (2.7 ml/kg subcutaneous injection containing 1.25 mg/ml midazolam, 2.5 mg/ml fluanisone and 0.079 mg/ml fentanylcitrate). The rat was placed in a stereotactic frame (David Kopf Instruments) and a 2 cm-midline incision was performed on top of the skull and the bone was exposed by retracting the skin and soft tissue. A dental drill was used to induce 4 burr holes in the skull; one large hole was carefully drilled to expose the dura mater to enable placement of the epidural pressure bolt (C313G-3UP, PlasticsOne), with the cannula cut to be level with the base of the pedestal. The other 3 smaller holes were used to fit anchoring screws to the skull. The epidural pressure bolt and the anchoring screws were placed and aligned with the interior surface of the skull and secured using dental resin-cement (Clearfil SA Cement, RH Dental). The epidural pressure bolt and the transducer (DTX-Plus™, Argon Medical Devices) were then connected by a polyethylene tube filled with sterile water, ensuring the absence of air bubbles.
The pressure signal was visualised and recorded using Perisoft v.2.5.5 (Perimed). Correct ICP signal was confirmed by the transient elevation of ICP after jugular vein compression. When the ICP recording procedure was completed the epidural pressure bolt was closed with a bite proof cap (303DCFTX2, PlasticsOne) and the rat allowed to recover.
In order to perform recordings in conscious animals, rats were sedated with midazolam (2.5 mg/kg subcutaneous injection) and the transducer connected to the epidural pressure bolt. […] The ICP signal was again confirmed by jugular vein compression as described above. […]

Na^+K^+ATPase [10] = settings: literature refs 10, 13-15; cited from earlier work

Compound: Exendin-9
- GLP-1R localisation after 15 minutes (GLP-1R [1]): predominantly restricted to the apical surface; also recorded: restricted to the apical membrane

Compound: NS(=O)(=O)c1cc(C(=O)O)c(NCc2ccco2)cc1Cl [furosemide]
- effects on ICP in IIH patients [2]: clinically beneficial effects on ICP

Compound: CC(=O)Nc1nnc(S(N)(=O)=O)s1 [Acetazolamide]
- visual field grades [3]: improved from baseline

- GLP-1R mRNA level (GLP-1R [5]; 3 hours, vs aCSF): significant increases
- GLP-1R protein level (GLP-1R [5]; 3 hours, vs aCSF): significant increases
- GLP-1R mRNA level (GLP-1R [5]; 6 hours): returned to basal levels
- GLP-1R protein level (GLP-1R [5]; 6 hours): remained high
- cAMP levels in choroid plexus explants (GLP-1R [7]): increased
- cAMP levels in choroid plexus explants (GLP-1R [7]; listed as exendin-4): increased levels of cAMP
- increase in cAMP compared to baseline (GLP-1R [8]; 100 nM, 30 minutes, 1 mM IBMX): 2 fold
- cAMP levels in CPe cells compared to control (in words) (GLP-1R [8]; FIG. 10A): significantly increased
Compound: Exendin-4
- Na+K+-ATPase activity compared to control (in words) (Na^+K^+ATPase [4]; 100 nM, 30 minutes, FIG. 10B): reduced
- Na+K+ATPase specific phosphate production (Na^+K^+ATPase [4]; 100 nM, 30 minutes, ouabain-sensitive): 39.3±9.4 % of control
- GLP-1R localisation after 15 minutes (GLP-1R [1]): predominantly restricted to the apical surface; also recorded: relocation of the GLP-1R to the apical surface
- GLP-1R localisation after 30 minutes (GLP-1R [1]; 30 minutes): translocated back to the cytoplasm; also recorded: internalised
- intracellular Na+ levels (Sodium Green fluorescence) [6]: higher numbers of intense fluorescent choroid plexus epithelial cells with no treatment
- intracellular Na+ levels (Sodium Green fluorescence) ([6]; listed as exendin-4): reduce intracellular sodium
- change in ICP from baseline ([9]; 1 μg/kg): lowered the ICP from baseline
- change in ICP from baseline ([9]; 3 μg/kg): lowered the ICP from baseline
- change in ICP from baseline ([9]; 5 μg/kg): greatest reduction
- ICP over a 24 hour period ([9]; 5 μg/kg, 24 hours): remained reduced
- time to significant ICP reduction compared to saline ([9]; conscious rats, 20 μg/kg subcutaneous): ≤ 10 min
- persistence of ICP reduction during recording ([9]; conscious rats, 20 μg/kg subcutaneous, 60 minutes recording): remained significantly lower for the rest of the recording; also recorded: lasted for the full 60 minutes
- ICP reduction from baseline ([9]; conscious rats, 20 μg/kg subcutaneous, within 10 minutes): 60.6±4.9%

Compound: C[C@@H]1O[C@@H](O[C@H]2C[C@@H](O)[C@]3(CO)[C@H]4[C@H](O)C[C@]5(C)[C@@H](C6=CC(=O)OC6)CC[C@]5(O)[C@@H]4CC[C@]3(O)C2)[C@H](O)[C@H](O)[C@H]1O [ouabain, Ouabain]
- CSF secretion (Na^+K^+ATPase [10]): totally inhibited

Compound: CC1(C)O[C@@H]2[C@@H](CO[C@@]3(COS(N)(=O)=O)OC(C)(C)O[C@@H]23)O1 [Topiramate]
- visual field grades [3]: improved from baseline
- therapeutic benefit on IIH versus acetazolamide control cohort [3]: no therapeutic benefit on IIH was noted above the control cohort
- weight loss [3]: induce weight loss

Compound: myristoylated protein kinase inhibitor (PKI)-(14-22)-amide (Myristoyl-SGRTGRRNA-NH2; UniProt P61925 14-22, looked up, fragment) [PKA inhibitor]
- effect on the Exendin-4 reduction in Na+K+ATPase activity (Na^+K^+ATPase [4]; 5 μM PKA inhibitor + 100 nM Exendin-4): abolish the Exendin-4 reduction
